Test results published in patent US11304957B2, “Substituted quinazolines for inhibiting kinase activity” (NeuPharma, Inc., priority 2013, dated 2022).

Experiments:
Assay type in all cases: biochemical
[1] = target: BTK (Homo sapiens (Human), UniProt Q06187); assay: Z'-LYTE kinase inhibition assay, BTK; details: read-out: % inhibition BTK; heading: % inhibition BTK; compound at 0.041 μM
Description: (§1) Inhibitory activities of compounds against BTK, EGFR and EGFR mutants (EGFR L858R, EGFR T790M, EGFR L858R/T790M), FGFR1, FGFR2, JAK2, JAK3 and KDR were measured by Invitrogen using Z′-LYTE® Method as briefly described in the following.
(§2) Test Compounds are screened in 1% DMSO (final) in the well. For 10 point titrations, 3-fold serial dilutions are conducted from the starting concentration. All ATP Solutions are diluted to a 4× working concentration in Kinase Buffer (50 mM HEPES pH 7.5, 0.01% BRIJ-35, 10 mM MgCl2, 1 mM EGTA). Peptide/Kinase Mixtures are diluted to a 2× working concentration in the appropriate Kinase Buffers as described below.
(v) Peptide/Kinase Mixtures for Measurement of BTK:
The 2×BTK/Tyr 01 mixture is prepared in 50 mM HEPES pH 7.5, 0.01% BRIJ-35, 10 mM MgCl2, 1 mM EGTA.
The mixture is then incubated for another 60-minute at room temperature for development reaction. Finally fluorescence is read by plate reader.
To determine IC50 of a compound against EGFR, EGFR mutant and other kinases, a series of concentrations of the compound were tested for the inhibition. […] The scale utilized in Table 4 is as follows: +++ less than 100 nM, ++ 100-500 nM and + greater than 500 nM.

[2] = target: JAK2 (Homo sapiens (Human), UniProt O60674); assay: Z'-LYTE kinase inhibition assay, JAK2; details: read-out: % inhibition JAK2; heading: % inhibition JAK2; compound at 0.041 μM
Description: as §1, §2
(v) Peptide/Kinase Mixtures for Measurement of JAK2:
The 2×JAK2/Tyr 06 mixture is prepared in 50 mM HEPES pH 7.5, 0.01% BRIJ-35, 10 mM MgCl2, 1 mM EGTA. The final 10 μL Kinase Reaction consists of 0.06-0.81 ng JAK2 and 2 μM Tyr 06 in 50 mM HEPES pH 7.5, 0.01% BRIJ-35, 10 mM MgCl2, 1 mM EGTA. After the 1 hour Kinase Reaction incubation, 5 μL of a 1:64 dilution of Development Reagent A is added.
Reaction starts by 30-second shaking of mixture consisting of 2.5 μL 4× test compound, 5 μL 2× kinase reaction mixture and 2.5 μL 4×ATP Solution on Bar-coded Corning, low volume NBS, black 384-well plate (Corning Cat. #3676). Then the mixture is incubated for 60-minute at room temperature for the kinase reaction, followed by addition of 5 μL of a 1:1024 dilution of development reagent A and 30-second plate shake. The mixture is then incubated for another 60-minute at room temperature for development reaction. Finally fluorescence is read by plate reader.

[3] = target: EGFR (ErbB1) T790M L858R (Homo sapiens (Human), UniProt P00533, L858R/T790M); assay: Z'-LYTE kinase inhibition assay, EGFR L858R/T790M; details: for inhibition at 0.0137 µM: read-out: % inhibition EGFR L858R/T790M (Compound at 0.0137 μM)
Description: Inhibitory activities of compounds against BTK, EGFR and EGFR mutants (EGFR L858R, EGFR T790M, EGFR L858R/T790M), FGFR1, FGFR2, JAK2, JAK3 and KDR were measured by Invitrogen using Z'-LYTE® Method as briefly described in the following. Test Compounds are screened in 1% DMSO (final) in the well. For 10 point titrations, 3-fold serial dilutions are conducted from the starting concentration. All ATP Solutions are diluted to a 4× working concentration in Kinase Buffer (50 mM HEPES pH 7.5, 0.01% BRIJ-35, 10 mM MgCl2, 1 mM EGTA). Peptide/Kinase Mixtures are diluted to a 2× working concentration in the appropriate Kinase Buffers as described below. (iv) Peptide/Kinase Mixtures for Measurement of EGFR (ErbB1) T790M L858R: The 2×EGFR (ErbB1) […] mixture is prepared in 50 mM HEPES pH 6.5, 0.01% BRIJ-35, 10 mM MgCl2, 1 mM EGTA, 0.02% NaN3. […] After the 1 hour Kinase Reaction incubation, 5 μL of a 1:64 dilution of Development Reagent B is added. Reaction starts by 30-second shaking of mixture consisting of 2.5 μL 4× test compound, 5 μL 2× kinase reaction mixture and 2.5 μL 4×ATP Solution on Bar-coded Corning, low volume NBS, black 384-well plate (Corning Cat. #3676). Then the mixture is incubated for 60-minute at room temperature for the kinase reaction, followed by addition of 5 μL of a 1:1024 dilution of development reagent A and 30-second plate shake. The mixture is then incubated for another 60-minute at room temperature for development reaction. Finally fluorescence is read by plate reader. To determine IC50 of a compound against EGFR, EGFR mutant and other kinases, a series of concentrations of the compound were tested for the inhibition.

Sequence of JAK2 (O60674 whole entry): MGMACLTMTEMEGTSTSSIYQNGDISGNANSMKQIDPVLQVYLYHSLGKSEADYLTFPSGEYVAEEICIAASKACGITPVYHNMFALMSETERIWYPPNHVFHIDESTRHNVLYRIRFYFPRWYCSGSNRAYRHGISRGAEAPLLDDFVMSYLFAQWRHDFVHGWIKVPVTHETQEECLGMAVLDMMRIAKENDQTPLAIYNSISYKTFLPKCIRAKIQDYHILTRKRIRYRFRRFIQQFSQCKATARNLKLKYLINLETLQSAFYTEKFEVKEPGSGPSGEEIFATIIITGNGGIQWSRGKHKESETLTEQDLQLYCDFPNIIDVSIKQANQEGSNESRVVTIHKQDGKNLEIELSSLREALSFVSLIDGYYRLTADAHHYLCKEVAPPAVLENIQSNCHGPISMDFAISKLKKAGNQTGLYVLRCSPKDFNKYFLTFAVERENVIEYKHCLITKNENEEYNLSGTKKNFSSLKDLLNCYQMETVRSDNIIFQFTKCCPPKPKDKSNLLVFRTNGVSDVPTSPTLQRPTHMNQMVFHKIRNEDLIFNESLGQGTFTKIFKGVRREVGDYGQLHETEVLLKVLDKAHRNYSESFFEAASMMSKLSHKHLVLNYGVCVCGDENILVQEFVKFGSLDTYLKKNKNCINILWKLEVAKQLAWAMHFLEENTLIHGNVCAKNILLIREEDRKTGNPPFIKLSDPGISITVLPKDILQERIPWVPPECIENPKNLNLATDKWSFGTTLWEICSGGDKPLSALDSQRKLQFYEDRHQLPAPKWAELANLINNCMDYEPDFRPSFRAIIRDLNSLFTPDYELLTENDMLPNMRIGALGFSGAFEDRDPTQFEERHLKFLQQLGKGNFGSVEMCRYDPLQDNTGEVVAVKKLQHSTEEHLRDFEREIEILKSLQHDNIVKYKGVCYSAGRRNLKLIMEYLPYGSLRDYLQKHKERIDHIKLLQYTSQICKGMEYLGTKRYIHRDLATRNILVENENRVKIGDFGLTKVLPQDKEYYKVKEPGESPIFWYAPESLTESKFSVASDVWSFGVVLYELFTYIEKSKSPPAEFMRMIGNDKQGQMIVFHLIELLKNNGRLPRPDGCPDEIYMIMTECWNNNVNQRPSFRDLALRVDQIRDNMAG
Sequence of BTK (Q06187 whole entry): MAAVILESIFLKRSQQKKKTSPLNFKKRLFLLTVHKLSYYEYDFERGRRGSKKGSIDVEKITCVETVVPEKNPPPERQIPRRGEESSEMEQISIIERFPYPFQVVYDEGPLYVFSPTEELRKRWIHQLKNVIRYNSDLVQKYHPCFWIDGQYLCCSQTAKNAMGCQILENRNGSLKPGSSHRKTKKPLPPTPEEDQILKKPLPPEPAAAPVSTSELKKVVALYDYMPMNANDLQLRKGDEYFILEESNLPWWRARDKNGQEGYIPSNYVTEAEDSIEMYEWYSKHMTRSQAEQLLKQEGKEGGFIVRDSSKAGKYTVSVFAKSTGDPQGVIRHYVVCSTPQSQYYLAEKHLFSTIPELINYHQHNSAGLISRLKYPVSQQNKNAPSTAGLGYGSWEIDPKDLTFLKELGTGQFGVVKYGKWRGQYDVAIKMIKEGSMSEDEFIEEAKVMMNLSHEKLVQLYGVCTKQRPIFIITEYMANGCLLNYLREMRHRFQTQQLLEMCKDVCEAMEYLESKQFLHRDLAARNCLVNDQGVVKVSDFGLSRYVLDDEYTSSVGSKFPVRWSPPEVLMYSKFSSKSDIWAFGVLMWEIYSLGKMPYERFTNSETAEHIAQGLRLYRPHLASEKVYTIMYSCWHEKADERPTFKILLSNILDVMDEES
Sequence of EGFR (ErbB1) T790M L858R (P00533 25-1210 T790M/L858R): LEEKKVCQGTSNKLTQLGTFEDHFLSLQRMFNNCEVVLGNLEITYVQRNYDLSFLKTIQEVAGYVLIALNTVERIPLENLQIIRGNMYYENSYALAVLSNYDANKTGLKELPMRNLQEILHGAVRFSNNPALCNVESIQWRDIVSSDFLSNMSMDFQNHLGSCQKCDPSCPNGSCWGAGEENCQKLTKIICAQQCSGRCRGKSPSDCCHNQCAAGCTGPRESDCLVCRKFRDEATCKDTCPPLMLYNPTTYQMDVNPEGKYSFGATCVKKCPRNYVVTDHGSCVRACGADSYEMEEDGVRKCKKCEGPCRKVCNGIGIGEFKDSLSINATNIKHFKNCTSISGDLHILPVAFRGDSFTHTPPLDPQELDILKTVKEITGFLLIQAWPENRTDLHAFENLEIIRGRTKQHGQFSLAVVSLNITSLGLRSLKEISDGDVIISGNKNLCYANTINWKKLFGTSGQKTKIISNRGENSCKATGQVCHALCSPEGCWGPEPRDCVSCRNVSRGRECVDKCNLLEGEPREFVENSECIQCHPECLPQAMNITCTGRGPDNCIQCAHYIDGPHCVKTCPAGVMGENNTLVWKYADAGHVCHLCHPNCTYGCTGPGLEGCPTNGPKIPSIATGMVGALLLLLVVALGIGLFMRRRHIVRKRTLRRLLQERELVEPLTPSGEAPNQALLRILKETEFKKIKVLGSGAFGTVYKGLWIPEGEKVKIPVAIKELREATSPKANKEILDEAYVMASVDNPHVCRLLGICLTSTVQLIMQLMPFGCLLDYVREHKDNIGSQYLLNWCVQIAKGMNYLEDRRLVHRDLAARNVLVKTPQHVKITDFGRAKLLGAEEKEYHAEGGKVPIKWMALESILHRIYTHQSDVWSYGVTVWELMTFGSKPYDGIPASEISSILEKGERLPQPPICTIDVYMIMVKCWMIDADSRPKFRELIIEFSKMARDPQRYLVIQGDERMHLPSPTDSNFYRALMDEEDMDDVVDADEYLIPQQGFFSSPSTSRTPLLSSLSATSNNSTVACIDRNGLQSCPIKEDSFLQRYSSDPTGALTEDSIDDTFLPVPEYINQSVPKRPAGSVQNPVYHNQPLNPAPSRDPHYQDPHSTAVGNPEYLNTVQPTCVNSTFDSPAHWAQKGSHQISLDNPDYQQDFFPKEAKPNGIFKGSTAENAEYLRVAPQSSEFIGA

Compound | inhibition at 0.041 µM [1] [%] | also measured
c1ccc(-c2cccc3cnc(Nc4ccc(N5CCOCC5)cc4)nc23)cc1 [Example C004, N-(4-morpholinophenyl)-8-phenylquinazolin-2-amine] | < 50 | inhibition at 0.041 µM [2]: > 50%
C=CC(=O)Nc1cccc(-c2nccc3c(N)nc(Nc4ccc(N5CCOCC5)cc4)nc23)c1 [Example C005, N-(3-(4-amino-2-((4-morpholinophenyl)amino)pyrido[3,4-d]pyrimidin-8-yl)phenyl)acrylamide] | > 50 | inhibition at 0.041 µM [2]: < 50%
Fc1cccc(-c2cccc3cnc(Nc4ccc(N5CCOCC5)cc4)nc23)c1 [Example C009, 8-(3-fluorophenyl)-N-(4-morpholinophenyl)quinazolin-2-amine] | < 50 | 
C=CC(=O)Nc1cccc(-c2nccc3cnc(Nc4ccc(N5CCOCC5)cc4)nc23)c1 [Example C012, N-(3-(2-((4-morpholinophenyl)amino)pyrido[3,4-d]pyrimidin-8-yl)phenyl)acrylamide] | > 50 | inhibition at 0.041 µM [2]: < 50%
Clc1ccccc1-c1cccc2cnc(Nc3ccc(N4CCNCC4)cc3)nc12 [Example C026, 8-(2-chlorophenyl)-N-(4-(piperazin-1-yl)phenyl)quinazolin-2-amine] | < 50 | 
C=CC(=O)Nc1cccc(-c2c(C)ccc3cnc(Nc4ccc(N5CCN(C)CC5)cc4)nc23)c1 [Example C034, N-(3-(7-methyl-2-((4-(4-methylpiperazin-1-yl)phenyl)amino)quinazolin-8-yl)phenyl)acrylamide] |  | inhibition at 1 µM ([3]; read-out: % inhibition EGFR L858R/T790M (Compound at 1 μM)): > 50%
C=CC(=O)Nc1cccc(-c2cccc3cnc(Nc4ccc(N5CCN(C)CC5)nc4)nc23)c1 [Example C041, N-(3-(2-((6-(4-methylpiperazin-1-yl)pyridin-3-yl)amino)quinazolin-8-yl)phenyl)acrylamide] |  | inhibition at 0.0137 µM [3]: > 50%
C=CC(=O)Nc1cccc(-c2cccc3cnc(Nc4ccc(OC5CCN(C)CC5F)cc4)nc23)c1 (stereo not drawn) [Example C079, N-(3-(2-((4-((3-fluoro-1-methylpiperidin-4-yl)oxy)phenyl)amino)quinazolin-8-yl)phenyl)acrylamide] |  | inhibition at 0.0137 µM [3]: > 50%
C=CC(=O)Nc1cccc(-c2cccc3cnc(Nc4ccc(N5CCN(C)CC5)c(C(N)=O)c4)nc23)c1 [Example C085, 5-((8-(3-acrylamidophenyl)quinazolin-2-yl)amino)-2-(4-methylpiperazin-1-yl)benzamide] |  | inhibition at 0.0137 µM [3]: > 50%
C=CC(=O)Nc1cccc(-c2cccc3cnc(Nc4ccc(NC5CCN(C)CC5F)cc4)nc23)c1 (stereo not drawn) [Example C105, N-(3-(2-((4-((3-fluoro-1-methylpiperidin-4-yl)amino)phenyl)amino)quinazolin-8-yl)phenyl)acrylamide] |  | inhibition at 0.0137 µM [3]: > 50%
C=CC(=O)Nc1cccc(-c2cccc3cnc(Nc4ccc(OCCN5CCC5)cc4)nc23)c1 [Example C109, N-(3-(2-((4-(2-(azetidin-1-yl)ethoxy)phenyl)amino)quinazolin-8-yl)phenyl)acrylamide] | > 50 | 
C=CC(=O)Nc1cccc(-c2cccc3cnc(Nc4ccc(OCCN(C)C)cc4)nc23)c1 [Example C110, N-(3-(2-((4-(2-(dimethylamino)ethoxy)phenyl)amino)quinazolin-8-yl)phenyl)acrylamide] | > 50 | 
C=CC(=O)Nc1cccc(-c2cccc3cnc(Nc4ccc(O[C@H]5CCOC5)cc4)nc23)c1 [Example C113, (S)-N-(3-(2-((4-((tetrahydrofuran-3-yl)oxy)phenyl)amino)quinazolin-8-yl)phenyl)acrylamide] | > 50 | 
C=CC(=O)Nc1cccc(-c2cccc3cnc(Nc4ccc(N[C@@H]5CCOC5)cc4)nc23)c1 [Example C115, (R)-N-(3-(2-((4-((tetrahydrofuran-3-yl)amino)phenyl)amino)quinazolin-8-yl)phenyl)acrylamide] | > 50 | 
C=CC(=O)Nc1cccc(-c2cccc3cnc(Nc4ccc(N5CCNC(=O)C5)cc4)nc23)c1 [Example C117, N-(3-(2-((4-(3-oxopiperazin-1-yl)phenyl)amino)quinazolin-8-yl)phenyl)acrylamide] | > 50 | 

Second part, led by results:

inhibition at 0.041 µM [1] [%] | Compound | also measured
> 50 | C=CC(=O)Nc1cccc(-c2cccc3cnc(Nc4ccc(NC5CCN(C)CC5)cc4)nc23)c1 [Example C118, N-(3-(2-((4-((1-methylpiperidin-4-yl)amino)phenyl)amino)quinazolin-8-yl)phenyl)acrylamide] | 
> 50 | C=CC(=O)Nc1cccc(-c2cccc3cnc(Nc4ccc(O[C@@H]5CCOC5)cc4)nc23)c1 [Example C119, (R)-N-(3-(2-((4-((tetrahydrofuran-3-yl)oxy)phenyl)amino)quinazolin-8-yl)phenyl)acrylamide] | 
> 50 | C=CC(=O)Nc1cccc(-c2cccc3cnc(Nc4ccc(NC5CCN(C(C)=O)CC5)cc4)nc23)c1 [Example C120, N-(3-(2-((4-((1-acetylpiperidin-4-yl)amino)phenyl)amino)quinazolin-8-yl)phenyl)acrylamide] | 
> 50 | C=CC(=O)Nc1cccc(-c2cccc3cnc(Nc4ccc(O[C@H]5CCN(C)C5)cc4)nc23)c1 [Example C121, (S)-N-(3-(2-((4-((1-methylpyrrolidin-3-yl)oxy)phenyl)amino)quinazolin-8-yl)phenyl)acrylamide] | 
> 50 | C=CC(=O)Nc1cccc(-c2cccc3cnc(Nc4ccc(OC5CN(C(C)=O)C5)cc4)nc23)c1 [Example C122, N-(3-(2-((4-((1-acetylazetidin-3-yl)oxy)phenyl)amino)quinazolin-8-yl)phenyl)acrylamide] | 
> 50 | C=CC(=O)Nc1cccc(-c2cccc3cnc(Nc4ccc(O[C@@H]5CCN(C)C5)cc4)nc23)c1 [Example C123, (R)-N-(3-(2-((4-((1-methylpyrrolidin-3-yl)oxy)phenyl)amino)quinazolin-8-yl)phenyl)acrylamide] | 
> 50 | C=CC(=O)Nc1cccc(-c2cccc3cnc(Nc4ccc(NC5CN(C(C)=O)C5)cc4)nc23)c1 [Example C124, N-(3-(2-((4-((1-acetylazetidin-3-yl)amino)phenyl)amino)quinazolin-8-yl)phenyl)acrylamide] | 
> 50 | C=CC(=O)Nc1cccc(-c2cccc3cnc(Nc4ccc(OC5CCN(C(C)=O)CC5)cc4)nc23)c1 [Example C125, N-(3-(2-((4-((1-acetylpiperidin-4-yl)oxy)phenyl)amino)quinazolin-8-yl)phenyl)acrylamide] | 
> 50 | C=CC(=O)Nc1cccc(-c2cccc3cnc(Nc4ccc(OC5CCN(C)CC5)cc4)nc23)c1 [Example C126, N-(3-(2-((4-((1-methylpiperidin-4-yl)oxy)phenyl)amino)quinazolin-8-yl)phenyl)acrylamide] | 
